According to ChEMBL document CHEMBL5505957 (Eur J Med Chem, 2024):
pEC50, pIC50, pKi: −log10 of the molar value. Values after ≈ are worked out from the molar mass of the structure shown.

Tests used:
[1] = test system: Human immunodeficiency virus 1; experiment: microbe, parasite or virus in culture; conditions: Human immunodeficiency virus 1, C8166
[2] = test system: Human immunodeficiency virus 1; experiment: microbe, parasite or virus in culture; conditions: Human immunodeficiency virus 1, C8166; remark: listed apart in the source
Rattus norvegicus = experiment: Anti-inflammatory activity against carrageenan-induced paw edema in Sprague-Dawley rat assessed as inhibition of paw edema
Protein O-GlcNAcase = biological target: T1, Protein O-GlcNAcase (Homo sapiens, UniProt O60502)
T1 sequence (O60502 whole entry): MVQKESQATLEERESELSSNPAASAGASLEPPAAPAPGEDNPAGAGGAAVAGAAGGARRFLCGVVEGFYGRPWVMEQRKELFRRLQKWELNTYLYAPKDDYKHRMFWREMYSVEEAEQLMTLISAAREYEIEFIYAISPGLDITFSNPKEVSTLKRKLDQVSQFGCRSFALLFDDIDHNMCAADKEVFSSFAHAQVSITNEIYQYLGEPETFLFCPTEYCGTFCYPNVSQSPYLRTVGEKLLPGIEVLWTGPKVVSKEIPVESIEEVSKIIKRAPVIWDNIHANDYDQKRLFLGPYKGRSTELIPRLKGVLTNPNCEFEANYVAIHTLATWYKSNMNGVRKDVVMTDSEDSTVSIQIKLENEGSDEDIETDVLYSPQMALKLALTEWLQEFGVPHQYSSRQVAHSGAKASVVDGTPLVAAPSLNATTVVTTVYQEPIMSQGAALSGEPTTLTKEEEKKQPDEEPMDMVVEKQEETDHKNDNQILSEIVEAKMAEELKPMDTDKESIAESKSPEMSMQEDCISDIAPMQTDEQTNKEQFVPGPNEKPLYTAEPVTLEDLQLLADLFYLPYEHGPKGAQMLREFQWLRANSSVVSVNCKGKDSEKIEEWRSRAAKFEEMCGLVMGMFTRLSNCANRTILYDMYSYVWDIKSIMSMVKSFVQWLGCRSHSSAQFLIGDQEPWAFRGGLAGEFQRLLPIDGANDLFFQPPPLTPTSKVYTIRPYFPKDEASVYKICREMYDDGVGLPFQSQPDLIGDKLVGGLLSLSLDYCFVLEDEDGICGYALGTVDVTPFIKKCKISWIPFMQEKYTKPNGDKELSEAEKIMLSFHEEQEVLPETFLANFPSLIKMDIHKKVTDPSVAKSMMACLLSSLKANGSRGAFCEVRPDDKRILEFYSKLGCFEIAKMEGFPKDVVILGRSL

[3] = Cytotoxicity against MDCK cells assessed as reduction in cell viability incubated for 48 hrs by MTT assay; conditions: dog
Cholinesterase = Cholinesterase (Equus caballus, UniProt P81908); experiment: Inhibition of equine serum BuChE using butyrylthiocholine chloride as substrate by Ellman's method
Cholinesterase, sequence (P81908 whole entry): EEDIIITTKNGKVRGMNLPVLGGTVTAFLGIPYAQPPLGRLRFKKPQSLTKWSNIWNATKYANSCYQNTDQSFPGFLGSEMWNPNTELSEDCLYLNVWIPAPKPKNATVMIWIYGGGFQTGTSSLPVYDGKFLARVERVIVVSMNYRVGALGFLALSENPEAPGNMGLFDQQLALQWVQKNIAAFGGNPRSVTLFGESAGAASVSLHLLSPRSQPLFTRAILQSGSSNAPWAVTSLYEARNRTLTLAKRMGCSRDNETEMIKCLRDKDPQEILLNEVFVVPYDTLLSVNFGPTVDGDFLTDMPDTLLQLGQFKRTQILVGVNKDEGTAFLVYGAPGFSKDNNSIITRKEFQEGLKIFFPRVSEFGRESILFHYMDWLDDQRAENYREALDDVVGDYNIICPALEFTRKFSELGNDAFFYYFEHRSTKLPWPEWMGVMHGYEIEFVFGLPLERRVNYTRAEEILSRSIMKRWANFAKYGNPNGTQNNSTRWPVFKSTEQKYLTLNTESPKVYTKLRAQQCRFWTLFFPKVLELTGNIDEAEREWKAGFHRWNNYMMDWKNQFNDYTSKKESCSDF

[4] = test system: Human immunodeficiency virus 1; experiment: Anti-HIV activity against wild type HIV-1 IIIB infected in human MT4 cells assessed as inhibition of virus-induced cytopathic effect incubated for 5 days by MTT assay; conditions: Human immunodeficiency virus 1, IIIB, MT4, 120 h
[5] = Cytotoxicity against African green monkey Vero E6 cells assessed as reduction in cell viability measured after 72 hrs by MTS assay
[6] = biological target: Replicase polyprotein 1ab (Severe acute respiratory syndrome coronavirus 2, UniProt P0DTD1)
[7] = test system: Human immunodeficiency virus 1; experiment: Antiviral activity against HIV-1 infected in human MT4 cells assessed as inhibition of virus-induced cytopathic effect measured after 5 days by spectrophotometric MTT assay; conditions: Human immunodeficiency virus 1, MT4, 120 h
[8] = Inhibition of Influenza A virus H1N1 neuraminidase
[9] = biological target: T2, M-phase inducer phosphatase 3 (Homo sapiens, UniProt P30307); experiment: Inhibition of full-length recombinant human CDC25C incubated for 5 to 8 mins by fluorescence based assay
T2 sequence (P30307 whole entry): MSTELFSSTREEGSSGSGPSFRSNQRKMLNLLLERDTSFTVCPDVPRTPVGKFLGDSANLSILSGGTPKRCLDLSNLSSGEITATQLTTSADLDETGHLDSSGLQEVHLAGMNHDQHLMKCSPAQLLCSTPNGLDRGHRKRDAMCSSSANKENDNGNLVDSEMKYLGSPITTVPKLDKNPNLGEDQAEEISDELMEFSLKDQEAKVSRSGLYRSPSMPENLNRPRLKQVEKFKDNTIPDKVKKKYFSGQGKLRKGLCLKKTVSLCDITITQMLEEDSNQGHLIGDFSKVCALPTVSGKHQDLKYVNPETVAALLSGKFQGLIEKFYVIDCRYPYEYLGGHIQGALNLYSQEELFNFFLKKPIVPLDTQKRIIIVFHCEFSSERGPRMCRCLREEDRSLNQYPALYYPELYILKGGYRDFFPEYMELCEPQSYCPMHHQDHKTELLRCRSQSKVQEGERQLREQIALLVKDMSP

[10] = Inhibition of Serratia marcescens Chitinase B
[11] = biological target: T3, Human immunodeficiency virus type 1 protease (Human immunodeficiency virus 1, UniProt Q72874)
Aspergillus fumigatus [12] = experiment: Antifungal activity against Aspergillus fumigatus by CLSI based broth microdilution method
Aspergillus fumigatus [13] = experiment: Antimicrobial activity against Aspergillus fumigatus assessed as fungal growth inhibition
[14] = biological target: T3, Human immunodeficiency virus type 1 protease; experiment: Binding affinity to HIV-1 protease assessed as inhibition constant
[15] = Inhibition of Serratia marcescens Chitinase A

Molecule `COc1ccc(S(=O)(=O)N(CC(C)C)C[C@@H](O)[C@H](Cc2ccccc2)n2cc(CNC(=O)c3ccc(CNC(=O)OC(C)(C)C)cc3)nn2)cc1` has a pIC50 [1] of 7.28 and a pIC50 [2] of 7.77.
Work on `Cc1cc(-n2cc(-c3ccc(F)cc3)nn2)n(-c2ccc(S(C)(=O)=O)cc2)n1` yielded an ED50 (Rattus norvegicus) of 0.44 mg/kg.
`Cc1cc(-n2cc(-c3ccc(N)cc3)nn2)n(-c2ccc(S(C)(=O)=O)cc2)n1` gave an ED50 (Rattus norvegicus) of 0.12 mg/kg.
`CO[C@@H]1O[C@H](CO)[C@@H](O)[C@H](O)[C@H]1n1cc(CCc2ccccc2)nn1` showed a pIC50 (Protein O-GlcNAcase) of 6.30.
`Cc1[nH]c(=O)[nH]c(=O)c1CCCc1cn(C2OC(CO)C(O)C2O)nn1` (configuration not stated) showed a CC50 at 48 h [3] of 79000 nM.
Molecule `O=C(CCCCC1CCSS1)NCc1cn(CCCCOc2ccc3c(c2)OCCC3=O)nn1` (configuration not stated) has a pIC50 (Cholinesterase) of 5.12.
In the case of `COC(=O)c1ccc(-n2cc(-c3cc(C)c(Oc4ccnc(Nc5ccc(C#N)cc5)n4)c(C)c3)nn2)cc1`, the pIC50 [4] was 7.89.
Molecule `CC1=NN(c2ccc(Cl)cc2)C(=O)/C1=C\c1ccc(OCc2cn(CC(=O)NCc3ccc(C(=O)O)cc3)nn2)cc1` has an IC50 at 72 h [5] of 22100 nM and a pIC50 [6] of 5.50.
Molecule `Cc1c(Cc2c(Cl)cccc2Cl)nc(SCc2cn(Cc3ccc(S(N)(=O)=O)cc3)nn2)[nH]c1=O` has a pEC50 [7] of 5.49.
With `CC(=O)O[C@H]1[C@H](OCc2cn(CC3=NCCS3)nn2)OC[C@@H](OC(C)=O)[C@H]1OC(C)=O` the pIC50 [8] was 5.79.
With `CO[C@@H]1O[C@H](CO)[C@@H](O)[C@H](O)[C@H]1n1cc(COc2ccccc2)nn1` the pIC50 (Protein O-GlcNAcase) was 6.14.
`CC(NC1=C(Cl)C(=O)c2cccnc2C1=O)c1cn(Cc2ccc(CO)cc2)nn1` (configuration not stated) gave a pIC50 [9] of 7.22.
Work on `CNC(=O)NC(=O)NCCC[C@@H](NC(=O)CN)C(=O)N(Cc1ccccc1)Cc1ccccc1` yielded a pIC50 [10] of 6.24.
`COC(=O)[C@@H](NC(=O)OCc1cn([C@@H](Cc2ccccc2)[C@H](O)CN(CC(C)C)S(=O)(=O)c2ccc(OC)cc2)nn1)c1ccccc1` gave a pIC50 [11] of 8.00.
Work on `CO[C@@H]1O[C@H](CO)[C@@H](O)[C@H](O)[C@H]1n1cc(CNc2ccccc2)nn1` yielded a pIC50 (Protein O-GlcNAcase) of 6.28.
`COc1ccc(S(=O)(=O)N(CC(C)C)C[C@@H](O)[C@H](Cc2ccccc2)n2cc(CNC(=O)c3ccncc3)nn2)cc1` gave a pIC50 [11] of 8.00.
For `COc1ccc(S(=O)(=O)N(CC(C)C)C[C@@H](O)[C@H](Cc2ccccc2)n2cc(CNC(=O)N[C@H]3c4ccccc4C[C@H]3O)nn2)cc1`, the pIC50 [1] was 7.34.
`COC(=O)[C@@H](C)NP(=O)(OCC1OC(n2cc(CN3CCC(=O)NC3=O)nn2)C(O)C1O)Oc1ccccc1` (some centres not stated) showed a pIC50 [8] of 4.60.
With `C=CCc1ccc(OCc2cn([C@H]3O[C@H](COC(C)=O)[C@@H](OC(C)=O)[C@H](OC(C)=O)[C@H]3OC(C)=O)nn2)c(OC)c1` the pIC50 (Aspergillus fumigatus [12]) was 5.27 and the MIC (Aspergillus fumigatus [13]) was 10.9 µM (≈ 6.25 µg/mL).
In the case of `CNC(=O)NC(=N)NCCC[C@@H](NC(=O)Cn1nncc1CO/N=C/c1ccnc2ccccc12)C(=O)N(Cc1ccccc1)Cc1ccccc1`, the pIC50 [10] was 7.66.
In the case of `COc1ccc(S(=O)(=O)N(CC(C)C)C[C@@H](O)C(Cc2ccccc2)n2cc(COC(=O)NC3c4ccccc4C[C@H]3O)nn2)cc1` (single isomer, unassigned), the pIC50 [11] was 8.22 and the pKi [14] was 8.77.
Molecule `CNC(=O)NC(=N)NCCC[C@@H]1NC(=O)[C@@H](C)NC(=O)C[C@@H](C(=O)O)NC(=O)C[C@@H](C(=O)O)NC(=O)[C@H](Cc2ccccc2)N(C)C1=O` [ARGIFIN] has a pIC50 [10] of 5.19 and a pIC50 [15] of 7.60.
